# Where no end group is shown, it is not given here.
# Columns and labels:
# CD34^+ cells = assay: Cell phenotyping of CD34+ liquid cultures by flow cytometry (CD34, CD33, CD15, CD41); format: cell-based, human; conditions: 2-week primary cultures of CD34+ cells from 1 to 3 individuals; ± SEM where noted
# From the text: Cell Source: UCB was collected, following informed consent of the parents and with the approval of the Sourasky Medical Center Ethics Committee, as previously described [Grisaru et al. (1999a) Am. J. Obstet. Gynecol, 180, 1240–1243]. Following 1:1 (v/v) dilution in Iscove's modified Dulbecco medium (IMDM, Beit Haemek, Israel), mononuclear cells were separated using 3% gelatin (Difco, Detroit, Mich.) and Ficoll-Hypaque gradients (<1.077 g/ml; Pharmacia, Uppsala, Sweden) [Pick et al. (1998) Br. J. Haematol. 103, 639–50]. CD34^+ cells were enriched using CD34 immunoglobulin-coated magnetic beads (CD34 progenitor cell selection system, Dynal, Norway).CD34^+ cells analysis was performed by flow cytometry (Becton Dickinson Immunocytochemistry System Inc., San Jose, Calif.), using CD34-PE (Becton Dickinson Immunocytometry System, Inc.) and CD45-FITC (Dako, Glostrup, Denmark) monoclonal antibodies. […] Liquid Cultures: UCB CD34^+ cells were set for liquid cultures at a concentration of 10^5/mL in IMDM, containing 10% autologous plasma, 2 mM L-glutamine (Sigma Chemical Co., St Louis, Mo.), penicillin ([…]), streptomycin ([…]), amphotericin B (2×10^−5 M) (Sigma Chemical Co.), and heparin (20 IU/mL, Gibco, Grand Island, N.Y.), all in a fully humidified atmosphere at 37° C. and 5% CO2. The following elements were added where noted: • 1. […] Endothlial Growth factors: Epidermal growth factor (EGF 10 ng/ml, Sigma Chemical Co.), basic Fibroblast growth factor (bFGF 20 ng/ml, Sigma Chemical Co.) incubated in a serum free medium (SFM) for 48 hr. • 3. Stress mimicking conditions: Hydrocortisone sodium succinate (Abic Ltd., Netanya, Israel) at concentrations equivalent to normal, intermediate and stress serum cortisol levels (0.1, 0.6 and 1.2 μM, respectively (De Vroede et al., Arch. Des. […] Antisense oligonucleotides: 3′-terminal 2′-O-Methylated 15- and 20-mer oligodeoxynucleotides in the antisense (AS) orientation, targeted against the common sequence domain in human AChEmRNA and BuChE mRNA, as control, […], as detailed elsewhere [Grisaru et al. (1999b) Mol. Cell. Biol. 19, 788–95]. • 5. AChE C-terminal peptides: The following C-terminal peptides of the AChE synaptic (ASP, also denoted SEQ ID: No. 2) and readthrough (ARP, also denoted SEQ ID: No. 1) isoforms were synthesized using a 433A peptide synthesizer (PE Applied Biosystems, Inc., Norwalk, Conn.). • ASP: 1-[…]-40, also denoted as SEQ ID: No. 2. • ARP: 1-[…]-26, also denoted as SEQ ID: No. 1.
# Culture Analyses: Twenty-four hr liquid cultures served for cytochemical staining, in situ hybridization, and cell proliferation assay by 5-bromo-2′-deoxy-Uridine (BrdU) incorporation [Grisaru et al. (1999b) id ibid.]. Twenty-eight day liquid cultures were sampled every 6–8 days for viable cell counting (using trypan blue dye exclusion), cell phenotyping (CD34^+, CD33^+ and CD41^+ quantification using flow cytometry, with CD34-PE, CD33-FITC (Immunotech/Coulter, Hialeah, Fla.), CD41-FITC (Immunoquality Products, Groningen, Netherlands) and CD45-FITC monoclonal antibodies), and growth of progenitor colony (granulocyte-macrophage and megakaryocytic), using previously described techniques (Pick et al. (1998) id ibid.). […] 11, 1049–57]. Nuclear staining w with 4′,6-diamidino-2- phenylindole [DAPI, see e.g., Peterson et al. (1999) Genetics 152, 427–439].
# FVB/N adult mice = assay: Biochemical and physiological male fertility correlates after ARP injection; format: in vivo, mouse
# From the text: Culture Analyses: Twenty-four hr liquid cultures served for cytochemical staining, in situ hybridization, and cell proliferation assay by 5-bromo-2′-deoxy-Uridine (BrdU) incorporation [Grisaru et al. (1999b) id ibid.]. Twenty-eight day liquid cultures were sampled every 6–8 days for viable cell counting (using trypan blue dye exclusion), cell phenotyping (CD34^+, CD33^+ and CD41^+ quantification using flow cytometry, with CD34-PE, CD33-FITC (Immunotech/Coulter, Hialeah, Fla.), CD41-FITC (Immunoquality Products, Groningen, Netherlands) and CD45-FITC monoclonal antibodies), and growth of progenitor colony (granulocyte-macrophage and megakaryocytic), using previously described techniques (Pick et al. (1998) id ibid.). Cytochemical Staining: Staining of AChE activity was essentially as detailed elsewhere [Grisaru et al. (1999b) id ibid], on non-fixed liquid cultures following 300×g centrifugation on collagen-coated cover slips placed on the bottom of the culture well, in the presence of 10^−5 M iso-OMPA (ISO) or BW284C51 (BW), selective inhibitors of BuChE and AChE, respectively [see also Keymer et al.(1999) Eur. J. Neurosci. 11, 1049–57]. Nuclear staining w with 4′,6-diamidino-2- phenylindole [DAPI, see e.g., Peterson et al. (1999) Genetics 152, 427–439]. Animals and Tissue Collection: Male FVB/N mice (2–6 months old) were sacrificed 24 hr following 4 successive days of a forced swim session as detailed [Kaufer et al. (1998) id ibid.], or a single injection of ARP (34 nmol/kg weight), or phosphate buffer (PB) for control. ARP, a 26 amino acid residue peptide synthesized according to the C-terminal sequence of human AChE-R [Grisaru et al. (1999b) id ibid.] was HPLC purified and mass-spectrometry analysed for purity. Control naïve mice and hAChE-R transgenics were sacrificed with no prior treatment. Blood samples were allowed to clot 1 hr at room temperature and overnight at 4° C., followed by centrifugation and serum collection. Testes and seminal vesicles were excised and weighed, fixed in 4% paraformaldehyde or Bouin's fixative for histological staining or kept at −70° C. for protein extraction. Sperm cells were collected from one cauda epididymis shredded in 1 ml saline. Evaluation of Serum Corticosterone Levels: concentrations were determined by radioimmunoassay.
# Epididymal sperm motility was assessed by visually determining percent motile sperm. Sperm concentration was measured using the Makler chamber (company, city, state).
# Detection of the AChE core protein and/or its variant C-terminal peptides was performed on 7 μm thick paraffin embedded testis sections with either anti-ASP (C-16; Santa Cruz Biotechnology, Santa Cruz, Calif.) or anti-ARP polyclonal antibodies [Sternfeld et al. (2000) id ibid.]. PCNA was detected using a dedicated staining kit (Zymed Laboratories, San-Francisco, Calif.); nuclear staining and counterstaining was with DAPI and hematoxylin, respectively (Sigma, St. Louis Mo.).
# To determine the in vivo capacity of ARP to affect different biochemical and physiological male fertility properties, the effect of injection of ARP or chronic expression of AChE-R (AChE-R transgenic mice) on different parameters was examined.
# [1] = 24-hr post i.p. injection of 34 nmol/Kg ARP, FVB/N adult male mice
Substance,MK (CD41^+) fold expansion (CD34^+ cells),Myeloid (CD33^+) fold expansion (CD34^+ cells),seminal gland wt. (FVB/N adult mice; [1]),sperm counts (FVB/N adult mice; [1]),"sperm, motile (FVB/N adult mice; [1])",sperm cell motility (FVB/N adult mice; ARP injected mice),sperm counts compared with untreated FVB/N mice (FVB/N adult mice; ARP-injected mice)
TPO,3.93 ± 3.56 fold,3.51 ± 2.23 fold,–,–,–,–,–
GMQGPAGSGWEEGSGSPPGVTPLFSP [ARP],–,–,10.79 ± 1.08 mg/gr weight,5.3 ± 1.2 cells/epididimis × 10^−6,5 ± 1.7 % of total sperm cells,significantly reduced motility,lower

# Reference: patent publication US7067486B2, “Acetylcholinesterase-derived peptides and uses thereof” (priority 1999, dated 2006)
